PubChem BioAssay AID1645868 (Buhrlage Lab, Dana-Farber Cancer Institute and Novartis …, 2021)
The source made the active and inactive calls.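 How the source made its calls: active means maximal percent inhibition of the deubiquitinase OTUD3 of at least 30% across the tested doses; inactive means the rest.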

Target: OTU domain-containing protein 3 (Homo sapiens) (UniProt Q5T2D3)
Experiment: Validation of screening hits, potency titration, in vitro enzymatic, OTU domain-containing protein 3 DUB inhibitors (AID 1645868)
Details: purified OTUD3, ubiquitin-rhodamine cleavage fluorescence, 2 h

Chain of OTU domain-containing protein 3 (Homo sapiens) (Q5T2D3 whole entry, looked up, the tested form may be a part): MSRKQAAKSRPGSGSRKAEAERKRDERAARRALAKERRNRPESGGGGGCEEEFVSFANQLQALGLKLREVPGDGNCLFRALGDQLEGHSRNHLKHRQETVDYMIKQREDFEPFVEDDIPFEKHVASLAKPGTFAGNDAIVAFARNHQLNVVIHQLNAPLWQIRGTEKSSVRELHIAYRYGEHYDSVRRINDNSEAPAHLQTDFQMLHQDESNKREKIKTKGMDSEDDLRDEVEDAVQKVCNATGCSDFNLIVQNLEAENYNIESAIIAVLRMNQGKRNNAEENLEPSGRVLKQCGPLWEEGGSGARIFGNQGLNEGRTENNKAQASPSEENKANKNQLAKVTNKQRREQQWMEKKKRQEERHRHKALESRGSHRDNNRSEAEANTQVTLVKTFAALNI

Question: How did the IC50 turn out when Cn1c(CCN2CCCC2)nc2cc(NC(=O)c3ccccc3)ccc21 was run?
Answer: Its IC50 is > 50 µM (inactive).

Question: How did the IC50 turn out when Cn1c(SCCOc2ccc(Cl)cc2)nnc1-c1ccc2c(c1)OCCO2 was run?
Answer: Its IC50 is > 50 µM (inactive).

Question: With O=C(Nc1cccc(N2CCCC2=O)c1)c1cccc2cccnc12 as the molecule, how does the IC50 read?
Answer: The IC50 was > 50 µM (inactive).

Question: COc1cccc2cccc(O)c12 was tested. Which IC50 did it give?
Answer: The IC50 was > 50 µM (inactive).

Question: Fc1ccc(Cn2ccc(-c3cnc(-c4ccccc4)s3)n2)cc1 was tested. Which IC50 did it give?
Answer: Its IC50 is > 50 µM (inactive).

Question: How did the IC50 turn out when Clc1cc2nc(N3CCN(c4ccccn4)CC3)c3nncn3c2cc1Cl was run?
Answer: The IC50 was 4.78 µM.

Question: Which IC50 does the source give for CCC(C)NC(=O)Cn1c(=O)n(-c2ccccc2)c(=O)c2ccc(C(=O)NCc3ccco3)cc21 (stereo not given) here?
Answer: The IC50 was 35.4 µM.

Question: How did the IC50 turn out when Cc1cc(N2CCN(c3ncccn3)CC2)nc2ccc(NC(=O)c3ccncc3)cc12 was run?
Answer: Its IC50 is 31 µM.

Question: Cc1c(C)n(-c2ccc(Br)cn2)c2ncnc(NCCCO)c12 was tested. Which IC50 did it give?
Answer: The IC50 was > 50 µM (inactive).

Question: How did the IC50 turn out when Cc1ccccc1NC(=O)Nc1ccccc1OCc1cc(=O)n2cccc(C)c2n1 was run?
Answer: The IC50 was 4.24 µM.

Question: How did the IC50 turn out when Cn1c(=O)c(C(=O)CN2CCN(c3ccc(O)cc3)CC2)c(N)n(Cc2ccccc2)c1=O was run?
Answer: Its IC50 is > 50 µM (inactive).

Question: Which IC50 does the source give for Fc1ccc(Cc2nc(-c3ccc4nncn4c3)no2)cc1 here?
Answer: The IC50 was > 50 µM (inactive).

Question: With CO[C@H]1[C@@H](O)[C@H](C)O[C@H](O[C@H]2[C@H](Oc3cccc4c(O)c5c(=O)oc6ccc(C)c7c(=O)oc(c34)c5c67)O[C@H](C)[C@H](O)[C@@H]2O)[C@@H]1O as the molecule, how does the IC50 read?
Answer: The IC50 was > 50 µM (inactive).

Question: O=C(CCc1ccc(S(=O)(=O)N2CCOCC2)cc1)Nc1ccc2c(c1)OCCO2 was tested. Which IC50 did it give?
Answer: The IC50 was > 50 µM (inactive).

Question: With CC[C@H](C)C[C@H]1CC[C@](O)([C@](C)(O)C(=O)N[C@@H]2C(=O)N3NCCC[C@@H]3C(=O)N(O)[C@@H](C)C(=O)NCC(=O)N3NCCC[C@H]3C(=O)N(O)[C@H](C)C(=O)O[C@H]2C(C)C)O[C@@H]1C as the molecule, how does the IC50 read?
Answer: Its IC50 is 2.18 µM.

Question: CC1=C(C(=O)Nc2ccccc2C)C(c2ccc(OCc3ccccc3F)cc2)n2ncnc2N1 (stereo not given) was tested. Which IC50 did it give?
Answer: Its IC50 is 24 µM.

Question: For Cc1ccc(-n2c(=O)[nH]c3c(C(N)=O)nc(-c4cccnc4)nc32)cc1, which IC50 is on record?
Answer: Its IC50 is 30.8 µM.

Question: How did the IC50 turn out when CC(=O)c1oc2nc3c(c(-c4ccc(Cl)cc4)c2c1N)CCc1ccccc1-3 was run?
Answer: Its IC50 is > 50 µM (inactive).

Question: How did the IC50 turn out when CC(C)(C)C(=O)Nc1ccc(SCc2nnc(-c3ccccc3)o2)cc1 was run?
Answer: The IC50 was > 50 µM (inactive).

Question: For Cc1ccc2[nH]c(=O)c(-c3nc4ccc(C)cn4c3NCc3ccc(F)cc3)cc2c1, which IC50 is on record?
Answer: Its IC50 is 3.37 µM.

Question: CSc1ccccc1C(=O)Nc1sc2c(c1C(N)=O)CCC(C)C2 (stereo not given) was tested. Which IC50 did it give?
Answer: Its IC50 is 22.1 µM.

Question: Which IC50 does the source give for O=c1[nH]c(C2CCN(S(=O)(=O)c3ccc(S(=O)(=O)NC4CCCC4)cc3)CC2)nc2c1nnn2Cc1cccc(Cl)c1 here?
Answer: Its IC50 is > 50 µM (inactive).

Question: For O=C(Cc1nnc2c(-c3nc(C4CC4)no3)cccn12)Nc1ccccc1, which IC50 is on record?
Answer: Its IC50 is 22.8 µM.

Question: With Cc1c(C(=O)NCc2cccc(Br)c2)oc2c1-c1[nH]ncc1CC2 as the molecule, how does the IC50 read?
Answer: Its IC50 is 48.2 µM.

Question: With Fc1cnc(N2CC[C@H]3CO[C@H](CNc4ncccn4)[C@H]3C2)nc1 as the molecule, how does the IC50 read?
Answer: The IC50 was > 50 µM (inactive).

Question: Which IC50 does the source give for O=C1C[C@@H](O)[C@H](O)[C@@]23O[C@@]12C1(Oc2cccc4cccc(c24)O1)[C@@H]1O[C@@H]1[C@@H]3O here?
Answer: The IC50 was 41.3 µM.

Question: How did the IC50 turn out when Cc1cccc(NC(=O)CN2C(=O)CC(c3ccccc3)S(=O)(=O)c3ccccc32)c1C (stereo not given) was run?
Answer: Its IC50 is 22.1 µM.

Question: With CC(=O)Nc1ccc([C@H]2OCC(=O)N(C3CCOCC3)[C@@H]2CO)cc1 as the molecule, how does the IC50 read?
Answer: The IC50 was > 50 µM (inactive).

Question: With CC(=O)c1cc2c(=O)c3c(C(=O)O)c(O)c(O)cc3oc2c(C(C)=O)c1-c1coc2cc(O)c(O)c(C(=O)O)c2c1=O as the molecule, how does the IC50 read?
Answer: The IC50 was 0.369 µM.

Question: How did the IC50 turn out when CC(C)N1CC[C@@H]2[C@H](C1)CN2C(=O)Nc1cccc(F)c1 was run?
Answer: The IC50 was > 50 µM (inactive).

Question: COc1ccc(Cn2c(SCc3ccc(C(=O)NCCc4ccccc4)cc3)nc3ccncc32)cc1 was tested. Which IC50 did it give?
Answer: The IC50 was > 50 µM (inactive).

Question: Cc1ccccc1NC(=O)CNc1nc(Nc2ccccc2)nc(Nc2ccccc2)n1 was tested. Which IC50 did it give?
Answer: The IC50 was 21 µM.

Question: For CCCCN(CC)c1ncnc2c1sc1nc(-c3ccco3)c3c(c12)CC(C)(C)OC3, which IC50 is on record?
Answer: The IC50 was > 50 µM (inactive).

Question: Which IC50 does the source give for COc1cc(Cl)ccc1Oc1ncnc2sc(C)c(C)c12 here?
Answer: Its IC50 is > 50 µM (inactive).

Question: For O=C(COc1nsnc1N1CCOCC1)Nc1ccc(F)c(F)c1, which IC50 is on record?
Answer: The IC50 was > 50 µM (inactive).

Question: With Nc1c(C(=O)NCCc2ccccc2)nnn1-c1ccc(F)cc1 as the molecule, how does the IC50 read?
Answer: Its IC50 is > 50 µM (inactive).

Question: For Cc1nc(N2CCCC2)ncc1C(=O)Nc1ccc(F)c(F)c1, which IC50 is on record?
Answer: The IC50 was > 50 µM (inactive).

Question: With O=C(COC(=O)c1cc(Cl)c2c(c1)OCO2)Nc1ccc2[nH]c(=O)[nH]c2c1 as the molecule, how does the IC50 read?
Answer: The IC50 was > 50 µM (inactive).

Question: For CC(C)CCn1c(=O)c2ccccc2n2c(CCC(=O)NC3CCCCCC3)nnc12, which IC50 is on record?
Answer: The IC50 was > 50 µM (inactive).

Question: Which IC50 does the source give for COc1ccc(/C=C/C(=O)Nc2ccc3c(c2)OCCO3)cc1Br here?
Answer: Its IC50 is > 50 µM (inactive).

Question: For CC(=O)Nc1ccc(O)c(-c2nc3cc(C)ccc3o2)c1, which IC50 is on record?
Answer: The IC50 was > 50 µM (inactive).

Question: For CCc1noc(Cn2cnc3c4ccccc4n(CC(=O)NC4CCCCC4)c3c2=O)n1, which IC50 is on record?
Answer: The IC50 was > 50 µM (inactive).

Question: For O=C(NCc1ccc2c(c1)OCO2)c1nn(C23CC4CC(CC(C4)C2)C3)cc1[N+](=O)[O-], which IC50 is on record?
Answer: Its IC50 is > 50 µM (inactive).

Question: Which IC50 does the source give for Cc1ccc(Cn2c(=O)n(CCC(=O)NCCc3ccccc3)c(=O)c3ccccc32)cc1 here?
Answer: The IC50 was 18.6 µM.

Question: With COc1ccc2nc(Nc3nc(-c4cnc(N5CCOCC5)nc4C)cc(=O)[nH]3)nc(C)c2c1 as the molecule, how does the IC50 read?
Answer: The IC50 was > 50 µM (inactive).
